# Tested on: Escherichia coli (ATCC25922) or Staphylococcus aureus (ATCC25923)
# Experiment: Antibacterial MIC, microdilution method in Mueller-Hinton medium
# Assay type: cell-based
# Conditions: Escherichia coli, 18 h, MIC in E. coli or S. aureus; two-fold serial dilutions 64 to 0.5 μg/ml in duplicate; 18 hours of incubation at 35° C.; read-out: Potency (MIC)
# Summary of the method: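 Read after 18 h incubation at 35° C, MIC is the lowest compound level that blocked growth. Compounds were tested in duplicate over 64–0.5 μg/ml two-fold dilutions using Mueller-Hinton microdilution per NCCLS standard.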
row,MIC,Molecule
1,< 16 µg/mL,"Cl.O=[N+]([O-])c1ccc(S(=O)(=O)c2ccc(Nc3nc(N4CCCCC4)nc(N4CCCCC4)n3)cc2)cc1 [N-[4-((2,4-dimethoxy-benzoylamino)-3-hydroxy-phenyl]-4,6-Bis-((3R,5S)-3,5-diamino-piperidin-1-yl)-[1,3,5]triazine-2-amine]"
2,< 64 µg/mL,"Cl.N[C@@H]1C[C@H](N)CN(c2nc(Nc3ccc4[nH]cnc4c3)nc(N3C[C@H](N)C[C@H](N)C3)n2)C1 [N-(1H-benzoimidazol-5-yl)-4,6-Bis-((3R,5S)-3,5-diamino-piperidin-1-yl)-[1,3,5]triazine-2-amine]"
3,> 64 µg/mL,"CC1=NN(c2ccc(Nc3nc(N4C[C@H](N)C[C@H](N)C4)nc(N4C[C@H](N)C[C@H](N)C4)n3)cc2)C(=O)C1CCO (stereo partly drawn) [N-{4-[4-(2-hydroxy-ethyl)-3-methyl-5-oxo-4,5-dihydro-pyrazol-1-yl]-phenyl}-4,6-Bis-((3R,5S)-3,5-diamino-piperidin-1-yl)-[1,3,5]triazine-2-amine]"
4,> 64 µg/mL,"COCCNC(=O)c1ccc(Nc2nc(N3C[C@H](N)C[C@H](N)C3)nc(N3C[C@H](N)C[C@H](N)C3)n2)cc1O [N-[3-hydroxy-4-(2-methoxy-ethylcarbamoyl)-phenyl]-4,6-Bis-((3R,5S)-3,5-diamino-piperidin-1-yl)-[1,3,5]triazine-2-amine]"
5,> 64 µg/mL,"N[C@@H]1C[C@H](N)CN(c2nc(NC3CCCNC3)nc(N3C[C@H](N)C[C@H](N)C3)n2)C1 (stereo partly drawn) [N-piperidin-3-yl-4,6-Bis-((3R,5S)-3,5-diamino-piperidin-1-yl)-[1,3,5]triazine-2-amine]"
6,> 64 µg/mL,"N[C@@H]1C[C@H](N)CN(c2nc(Nc3ccc(NC(=O)C(F)(F)F)cc3)nc(N3C[C@H](N)C[C@H](N)C3)n2)C1 [N-[4-(2,2,2-trifluoro-acetylamino)-phenyl]-4,6-Bis-((3R,5S)-3,5-diamino-piperidin-1-yl)-[1,3,5]triazine-2-amine]"
7,> 64 µg/mL,"CSc1nnc(Nc2nc(N3C[C@H](N)C[C@H](N)C3)nc(N3C[C@H](N)C[C@H](N)C3)n2)s1.Cl [N-(5-methylsulfanyl-[1,3,4]thiadiazol-2-yl)-4,6-Bis-((3R,5S)-3,5-diamino-piperidin-1-yl)-[1,3,5]triazine-2-amine]"

# Same assay, conditions: Escherichia coli, 18 h, read-out: Potency (MIC)
row,Molecule,MIC
1,"CC(=O)c1ccc(Nc2nc(N3C[C@H](N)C[C@H](N)C3)nc(N3CC[C@H](O)[C@@H]3CN)n2)cc1 [1-{4-[4-((2S,3S)-2-Aminomethyl-3-hydroxy-pyrrolidin-1-yl)-6-((3R,5S)-3,5-diamino-piperidin-1-yl)-[1,3,5]triazin-2-ylamino]-phenyl}-ethanone]",> 64 µg/mL
2,"N[C@@H]1C[C@H](N)CN(c2nc(NCc3ccc(-c4ccccc4)cc3)nc(N3C[C@H](N)C[C@H](N)C3)n2)C1 [N-biphenyl-4-ylmethyl-4,6-Bis-((3R,5S)-3,5-diamino-piperidin-1-yl)-[1,3,5]triazine-2-amine]",< 64 µg/mL
3,"N[C@@H]1C[C@H](N)CN(c2nc(Nc3ccc(C(=O)CC(=O)Nc4ccc(S(=O)(=O)Nc5ccc6cn[nH]c6c5)cc4)cc3)nc(N3C[C@H](N)C[C@H](N)C3)n2)C1 [N-(4-{2-[4-(1H-indazol-6-ylsulfamoyl)-phenylcarbamoyl]-acetyl}-phenyl)-4,6-Bis-((3R,5S)-3,5-diamino-piperidin-1-yl)-[1,3,5]triazine-2-amine]",< 64 µg/mL
4,"Cc1cc(=O)oc2cc(Nc3nc(N4C[C@H](N)C[C@H](N)C4)nc(N4CC[C@H](O)[C@H](CN)C4)n3)ccc12 [7-[4-((3R,4S)-3-Aminomethyl-4-hydroxy-piperidin-1-yl)-6-((3R,5S)-3,5-diamino-piperidin-1-yl)-[1,3,5]triazin-2-ylamino]-4-methyl-chromen-2-one]",> 64 µg/mL
5,"NC1CN(c2nc(Nc3ccc(NC(=O)c4ccc(Cl)cc4)c(O)c3)nc(N3C[C@H](N)C[C@H](N)C3)n2)C1 [N-{4-[4-(3-Amino-azetidin-1-yl)-6-((3R,5S)-3,5-diamino-piperidin-1-yl)-[1,3,5]triazin-2-ylamino]-2-hydroxy-phenyl}-4-chloro-benzamide]",< 16 µg/mL
6,"N[C@@H]1C[C@H](N)CN(c2nc(Nc3ccc(NC(=O)c4ccc5ccccc5c4O)cc3)nc(N3C[C@@H](O)[C@@H](O)C3)n2)C1 [1-Hydroxy-naphthalene-2-carboxylic acid {4-[4-((3S,5R)-3,5-diamino-piperidin-1-yl)-6-((3R,4S)-3,4-dihydroxy-pyrrolidin-1-yl)-[1,3,5]triazin-2-ylamino]-phenyl}-amide]",< 64 µg/mL
7,"N[C@@H]1C[C@H](N)CN(c2nc(NNc3ccc(F)cc3)nc(N3C[C@H](N)C[C@H](N)C3)n2)C1 [N-(4,6-Bis-((3R,5S)-3,5-diamino-piperidin-1-yl)-[1,3,5]triazin-2-yl)-N′-(4-Fluoro-phenyl)-hydrazine]",< 64 µg/mL
8,"CC(=O)Nc1ccc(Nc2nc(N3C[C@H](N)C[C@H](N)C3)nc(N3C[C@H](N)C[C@H](N)C3)n2)cc1O [N-(4-acetylamino-3-hydroxy-phenyl)-4,6-Bis-((3R,5S)-3,5-diamino-piperidin-1-yl)-[1,3,5]triazine-2-amine]",> 64 µg/mL
9,"Cc1ccc(S(=O)(=O)N(Cc2ccccc2)c2ccc(Nc3nc(N4C[C@H](N)C[C@H](N)C4)nc(N4C[C@@H](O)[C@@H](O)C4)n3)cc2O)cc1 [N-Benzyl-N-{4-[4-((3R,5S)-3,5-diamino-piperidin-1-yl)-6-((3R,4S)-3,4-dihydroxy-pyrrolidin-1-yl)-[1,3,5]triazin-2-ylamino]-2-hydroxy-phenyl}-4-methyl-benzenesulfonamide]",< 64 µg/mL
10,"N[C@@H]1C[C@H](N)CN(c2nc(Nc3ccc(NS(=O)(=O)c4cc(Cl)cc(Cl)c4O)c(O)c3)nc(N3C[C@H](N)C[C@H](N)C3)n2)C1 [N-[4-(3,5-dichloro-2-hydroxy-benzenesulfonylamino)-3-hydroxy-phenyl]-4,6-Bis-((3R,5S)-3,5-diamino-piperidin-1-yl)-[1,3,5]triazine-2-amine]",< 16 µg/mL
11,"Nc1cncc(Nc2nc(N3C[C@H](N)C[C@H](N)C3)nc(N3C[C@H](N)C[C@H](N)C3)n2)c1 [N-(5-amino-pyridin-3-yl)-4,6-Bis-((3R,5S)-3,5-diamino-piperidin-1-yl)-[1,3,5]triazine-2-amine]",> 64 µg/mL
12,"COc1nc(Nc2ccc(C(=O)CC(=O)Nc3ccc4c(c3)OC(F)(F)O4)cc2)nc(N2C[C@H](N)C[C@H](N)C2)n1 [3-{4-[4-((3R,5S)-3,5-Diamino-piperidin-1-yl)-6-methoxy-[1,3,5]triazin-2-ylamino]-phenyl}-N-(2,2-difluoro-benzo[1,3]dioxol-5-yl)-3-oxo-propionamide]",< 16 µg/mL
13,"CC(C)c1cc(C(=O)Nc2ccc(Nc3nc(N4C[C@H](N)C[C@H](N)C4)nc(N4C[C@H](N)C[C@H](N)C4)n3)cc2)c(O)c(C(C)C)c1 [N-[4-(2-hydroxy-3,5-diisopropyl-benzoylamino)-phenyl]-4,6-Bis-((3R,5S)-3,5-diamino-piperidin-1-yl)-[1,3,5]triazine-2-amine]",< 16 µg/mL
14,"NC[C@@H]1C[C@H](N)CN1c1nc(Nc2ccc3c(c2)C(=O)c2ccccc2-3)nc(N2C[C@H](N)C[C@H](N)C2)n1 [2-[4-((2S,4S)-4-Amino-2-aminomethyl-pyrrolidin-1-yl)-6-((3R,5S)-3,5-diamino-piperidin-1-yl)-[1,3,5]triazin-2-ylamino]-fluoren-9-one]",> 64 µg/mL
15,"CN(C)c1ccc(C(=O)Nc2ccc(Nc3nc(N4C[C@H](N)C[C@H](N)C4)nc(N4C[C@H](N)C[C@H](N)C4)n3)cc2)c(O)c1 [N-[4-(4-dimethylamino-2-hydroxy-benzoylamino)-phenyl]-4,6-Bis-((3R,5S)-3,5-diamino-piperidin-1-yl)-[1,3,5]triazine-2-amine]",< 16 µg/mL
16,"N[C@@H]1C[C@H](N)CN(c2nc(Nc3ccc(C(=O)Nc4cccc(Cl)c4)c(O)c3)nc(N3C[C@H](N)C[C@H](N)C3)n2)C1 [N-[4-(3-chloro-phenylcarbamoyl)-3-hydroxy-phenyl]-4,6-Bis-((3R,5S)-3,5-diamino-piperidin-1-yl)-[1,3,5]triazine-2-amine]",< 16 µg/mL
17,"N#Cc1ccc(NC(=O)c2ccc(Nc3nc(N4C[C@H](N)C[C@H](N)C4)nc(N4C[C@H](N)C[C@H](N)C4)n3)cc2O)cc1 [N-[4-(4-cyano-phenylcarbamoyl)-3-hydroxy-phenyl]-4,6-Bis-((3R,5S)-3,5-diamino-piperidin-1-yl)-[1,3,5]triazine-2-amine]",< 64 µg/mL
18,"N[C@@H]1C[C@H](N)CN(c2nc(NCCCn3ccnc3)nc(N3C[C@H](N)C[C@H](N)C3)n2)C1 [N-(3-imidazol-1-yl-propyl)-4,6-Bis-((3R,5S)-3,5-diamino-piperidin-1-yl)-[1,3,5]triazine-2-amine]",> 64 µg/mL
19,"NC[C@@H]1C[C@H](N)CN1c1nc(Nc2ccc(C(=O)CC(=O)Nc3ccccc3Cl)cc2)nc(N2C[C@H](N)C[C@H](N)C2)n1 [3-{4-[4-((2S,4S)-4-Amino-2-aminomethyl-pyrrolidin-1-yl)-6-((3R,5S)-3,5-diamino-piperidin-1-yl)-[1,3,5]triazine-2-ylamino]-phenyl}-N-(2-chloro-phenyl)-3-oxo-propionamide]",< 64 µg/mL
20,"N[C@@H]1C[C@H](N)CN(c2nc(Nc3ccc(C(=O)Nc4cccc(CO)c4)c(O)c3)nc(N3C[C@H](N)C[C@H](N)C3)n2)C1 [N-[3-hydroxy-4-(3-hydroxymethyl-phenylcarbamoyl)-phenyl]-4,6-Bis-((3R,5S)-3,5-diamino-piperidin-1-yl)-[1,3,5]triazine-2-amine]",< 64 µg/mL
21,"NCc1ccc(NC(=O)CC(=O)c2ccc(Nc3nc(N4C[C@H](N)C[C@H](N)C4)nc(N4C[C@H](N)C[C@H](N)C4)n3)cc2)cc1 [N-{4-[2-(4-aminomethyl-phenylcarbamoyl)-acetyl]-phenyl}-4,6-Bis-((3R,5S)-3,5-diamino-piperidin-1-yl)-[1,3,5]triazine-2-amine]",> 64 µg/mL

# Same assay, conditions: MIC in E. coli or S. aureus; two-fold serial dilutions 64 to 0.5 μg/ml in duplicate; 18 hours of incubation at 35° C.
row,Molecule,Potency (MIC)
1,"carboxylic acid {4-[4-((2S,4S)-4-amino-2-hydroxymethyl-pyrrolidin-1-yl)-6-((3R,5S)-3,5-diamino-piperidin-1-yl)-[1,3,5]triazine-2-ylamino]-phenyl}-amide",++ (++ means MIC<16 μg/ml in E. coli or S. aureus)

# Reference: patent US7223759B2, “Antibacterial 3,5-diaminopiperidine-substituted aromatic and heteroaromatic compounds” (Anadys Pharmaceuticals, Inc., priority 2003, dated 2007)
